In patent US12365670B2, “GLP-IR agonists and uses thereof” (QILU REGOR THERAPEUTICS INC., priority 2018, dated 2025):

Columns and labels:
[1] = Monkey oral pharmacokinetic (PK) study; type: in vivo, Cynomolgus monkeys (Macaca fascicularis); settings: for plasma concentration-time profile: PO, over about 24 hours after oral dosing, FIGS. 8A-8E; for AUC0-24 h (Arbitrary units) / Cmax (Arbitrary unit): oral
Procedure: Appropriate volumes of vehicles (e.g., 2% Tween 80 (v:v) and 0.5% MC (w:v) in saline or 0.5% MC (w:v) in water were then added into the mortar containing the ground compounds, and the mixture was then grinded with a pestle until a homogeneous paste was formed. Additional appropriate volumes of vehicles were added into the mortar containing each compound, and the mixture was grinded further with the pestle until a homogeneous suspension was obtained.
The suspension was then transferred into a glass bottle. The mortar and the pestle were rinsed with the vehicle until no compound was left in the mortar or on the pestle.
The rest of the vehicle was added to make up the final dosing volume of about 1 mg/mL or 2 mg/mL (i.e., final dosing volume of about 5 mL/kg), and the homogenous suspension was continuously stirred prior to and during the dosing.
Non-nave Cynomolgus male monkeys (n=3/test article; sourced from Hainan Jingang Biotech Co., Ltd., Nayang Xintan, Fucheng Town, Qiongshan District, Haikou City, Hainan Province, China); or non-naïve aged, obese, and diabetic male Macaca fascicularis monkeys (n=3/test article, Source: Kunming Biomed International Colony) were used in pre-clinical in vivo studies. All non-nave Cynomolgus male monkeys were approximately 3 to 5 years old, weighed about 2.5-5 kg, and were within ±20% of the average body weight. All non-nave aged, obese, and diabetic male Macaca fascicularis monkeys were approximately 12 to 20 years old, weighed about >8-12 kg.
All animals were fasted overnight before dosing, and the food were supplied approximately 4 hours post dose (with free access to water all the time).
Animals were restrained at designated time points for blood sampling. Approximately 500 μL of blood samples was taken via cephalic or saphenous vein into EDTA-K2 tubes. Blood samples were put on wet ice before centrifugation.
For oral administration (PO) of either Dose 1 or Dose 2: blood samples were collected at pre-dose, and at 15 min, 30 min, 1 hr, 2 hr, 4 hr, (6 hr for compounds 19 and 28 with cynomolgus monkeys only), 8 hr, 12 hr, and 24 hr post dose (i.e., 9 or 10 total time points for each compound at each dose).
The blood samples were centrifuged at approximately 2,000-4,000 rpm for about 10-15 minutes at 2-8° C., and each resulting plasma portion was then transferred into an individual tube.
LC-MS/MS methods were developed, and bioanalysis for the test articles in monkey plasma was performed according to the developed LC-MS/MS methods.
Undiluted plasma samples: An aliquot of 20-50 μL plasma sample was mixed with 200 μL of ACN or MeOH containing one of the internal standards (IS, e.g., Diclofenac or Terfenadine) The mixture was then vortexed for about 1-5 min, and centrifuged at about 4,000-5,800 rpm for about 10-15 min. An aliquot of 1 μL supernatant was used for LC-MS/MS analysis.
Plasma samples with 10-fold dilution: An aliquot of 2 μL plasma sample was first mixed with 18 μL of blank plasma, then 200 μL of ACN containing 100 ng/mL IS (e.g. Diclofenac) was added to the mixture. The mixture was then vortexed for about 10 min, and was centrifuged at about 5,800 rpm for about 10 min. An aliquot of 1 μL supernatant was used for LC-MS/MS analysis.
MS conditions: Positive ion, ESI, MRM detection with parent and daughter ions, internal standard Diclofenac. • Compound ID: Compounds 19, 28, 29, 225 or 418 (control) HPLC conditions Method 1: • Mobile Phase A: H2O-0.025% FA-1 mM NH4OAC • Mobile Phase B: MeOH-0.025% FA-1 mM NH4OAC
Pharmacokinetics parameters, including area under the curve (AUC0-t), maximum plasma concentration (Cmax), time to reach maximum plasma concentration (Tmax), oral bioavailability (F %), etc., were calculated using Phoenix software (Version 6.4) and non-compartment model.

GLP1R [2] = biological target: T1, GLP1R (Homo sapiens, UniProt P43220); experiment: β-Arrestin-mediated GLP1R internalization assay (PathHunter engineered U2OS cells); type: cell-based; parameters: host or cells: PathHunter engineered U2OS cells; settings: averaged Bmax, Percentage of Control GLP-1 (7-37), top concentration 10 μM
Excerpt: A similar assay can also be used to assess the extent of signal attenuation due to GLP-1R internalization (the β-Arrestin Internalization Assay). In this assay, activated GLP1R Internalization cells were engineered to co-express an untagged GLP1R, Enzyme Acceptor (EA) tagged β-Arrestin, and a ProLink™ (PK) tag localized to the endosomes. Activation of the GLP1R induces β-Arrestin recruitment, which leads to internalization of the Receptor/Arrestin-EA complex in PK-tagged endosomes. This forces complementation of the two β-galactosidase enzyme fragments (EA and PK) to form a functional enzyme that hydrolyzes substrate to generate a chemiluminescent signal. […]
Specifically, PathHunter engineered U2OS cells from the assay kit (Cat #93-0724E3CP0L) were plated at a density of 2000 cells/20 μL/well in a 384-well white/clear bottom plates (Greiner Cat #781098). […] Cells were stored in a 37° C. incubator and kept for approximately 48 hours until ready for the assay. […]
Following 180 min incubation, detection reagents were made up by combining 1 part Galacton Star Substrate with 5 parts Emerald II™ Solution, and 19 parts of PathHunter Cell Assay Buffer, respectively. […] Plates were then read on Envision for 0.1 sec/well.
EC50 determinations were made from agonist dose-response curves analyzed with a curve fitting program using a 4-parameter logistic dose response equation.

GLP1R [3] = biological target: T1, GLP1R; experiment: GLP-1R/β-Arrestin recruitment assay (PathHunter eXpress GLP1R CHO-K1 β-Arrestin GPCR Assay); type: cell-based; parameters: host or cells: PathHunter CHO-K1 GLP1R β-Arrestin cells (from the kit); settings: averaged Bmax, Percentage of Control GLP-1 (7-37), top concentration 10 μM
Excerpt: GLP-1R agonist activity with respect to β-arrestin recruitment can be determined with a cell-based functional assay using PathHunter eXpress GLP1R CHO-K1 β-Arrestin GPCR Assay kit (DiscoverX Cat #93-0300E2CPOM).
The PathHunter β-Arrestin GPCR assay technology utilizes a β-galactosidase ([…]) enzyme that is split into two fragments, the smaller Enzyme Donor (ED) and the larger Enzyme Acceptor (EA). These fragments can be fused to two proteins that may interact with each other, such as EA-β-Arrestin and ED-GLP-1R. The fusions can be stably expressed in a test cell line, such as the PathHunter CHO-K1 GLP1R β-Arrestin cells described below. […]
In this experiment, PathHunter CHO-K1 GLP1R β-Arrestin cells from the assay kit were plated at a density of 1000 or 2000 cells/[…]/well in a 384-well white/clear bottom plates (Greiner Cat #781098). […] Cells were stored in a 37° C. incubator under 5% CO2 and kept for approximately 48 hours until ready to run the assay. […]
Following 90 min incubation, detection reagents were made up by combining 1 part Galacton Star Substrate with 5 parts Emerald II™ Solution, and 19 parts of PathHunter Cell Assay Buffer, respectively. […] Plates were then read on Envision for 0.1 sec/well.
EC50 determinations were made from agonist dose-response curves analyzed with a curve fitting program using a 4-parameter logistic dose response equation. […]

[4] = Dose 1, non-naive Cynomolgus male monkeys

T1 sequence (P43220 24-463): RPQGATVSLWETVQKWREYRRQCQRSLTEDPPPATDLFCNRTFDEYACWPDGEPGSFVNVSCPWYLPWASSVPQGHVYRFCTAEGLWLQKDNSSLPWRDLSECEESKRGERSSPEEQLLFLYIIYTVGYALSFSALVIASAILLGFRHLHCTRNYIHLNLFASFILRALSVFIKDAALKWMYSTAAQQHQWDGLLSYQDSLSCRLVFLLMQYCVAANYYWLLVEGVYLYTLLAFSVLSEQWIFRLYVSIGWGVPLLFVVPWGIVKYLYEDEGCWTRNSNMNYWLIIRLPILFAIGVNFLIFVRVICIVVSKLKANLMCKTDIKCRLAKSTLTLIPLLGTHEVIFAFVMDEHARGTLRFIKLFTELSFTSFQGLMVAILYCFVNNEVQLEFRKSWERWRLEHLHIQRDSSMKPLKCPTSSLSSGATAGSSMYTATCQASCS

Structure (SMILES)	plasma concentration-time profile [1]	AUC0-24 h (Arbitrary units) ([1]; Dose 2, monkeys)	Cmax (Arbitrary unit) ([1]; Dose 2, monkeys)	further results
N#Cc1ccc(COc2cccc(C3=CCN(Cc4nc5ccc(C(=O)O)nc5n4C[C@@H]4CCO4)CC3)n2)c(F)c1 [Compound 225, (S)-2-((6-((4-cyano-2-fluorobenzyl)oxy)-3′,6′-dihydro-[2,4′-bipyridin]-1′(2′H)-yl)methyl)-3-(oxetan-2-ylmethyl)-3H-imidazo[4,5-b]pyridine-5-carboxylic acid]	sustained at a more constant level	1500	184	–
O=C(O)c1ccc2nc(CN3CC=C(c4ccc(F)c(OCc5ccc(Cl)cc5F)c4)CC3)n(C[C@@H]3CCO3)c2c1 [Compound 29, (S)-2-((4-(3-((4-chloro-2-fluorobenzyl)oxy)-4-fluorophenyl)-3,6-dihydropyridin-1(2H)-yl)methyl)-1-(oxetan-2-ylmethyl)-1 h-benzo[d]imidazole-6-carboxylic acid]	sustained at a more constant level	21800	3380	–
N#Cc1ccc(COc2cccc(C3=CCN(Cc4nc5ccc(C(=O)O)cc5n4C[C@@H]4CCO4)CC3)n2)c(F)c1 [Compound 19, (S)-2-((4-(6-(4-cyano-2-fluorobenzyloxy)pyridin-2-yl)-5,6-dihydropyridin-1(2H)-yl)methyl)-1-(oxetan-2-ylmethyl)-1 h-benzo[d]imidazole-6-carboxylic acid]	sustained at a more constant level	–	–	AUC0-24 h (Arbitrary units) [1, 4]: 1130 Arbitrary units; Cmax (Arbitrary unit) [1, 4]: 125 Arbitrary unit
O=C(O)c1ccc2nc(CN3CC=C(c4ccc(F)c(OCc5ccc(Cl)cc5F)c4)CC3)n(C[C@@H]3CCO3)c2n1 [Compound 236, (S)-2-((4-(3-((4-chloro-2-fluorobenzyl)oxy)-4-fluorophenyl)-5,6-dihydropyridin-1(2H)-yl)methyl)-3-(oxetan-2-ylmethyl)-3H-imidazo[4,5-b]pyridine-5-carboxylic acid]	–	–	–	Bmax (POC) (GLP1R [2]): 30.0 POC
O=C(O)c1ccc2nc(CN3CC=C(c4cccc(OCc5ccc(Cl)cc5F)c4)CC3)n(C[C@@H]3CCO3)c2c1 [Compound 28, (S)-2-((4-(3-((4-chloro-2-fluorobenzyl)oxy)phenyl)-3,6-dihydropyridin-1(2H)-yl)methyl)-1-(oxetan-2-ylmethyl)-1 h-benzo[d]imidazole-6-carboxylic acid]	sustained at a more constant level	–	–	AUC0-24 h (Arbitrary units) [1, 4]: 24900 Arbitrary units; Cmax (Arbitrary unit) [1, 4]: 3910 Arbitrary unit
O=C(O)c1ccc2nc(CN3CCN(c4cccc(NCc5ccc(Cl)cc5F)n4)CC3)n(C[C@@H]3CCO3)c2c1 [Compound 1, (S)-2-((4-(6-(4-chloro-2-fluorobenzylamino)pyridin-2-yl)piperazin-1-yl)methyl)-1-(oxetan-2-ylmethyl)-1 h-benzo[d]imidazole-6-carboxylic acid]	–	–	–	Bmax (POC) (GLP1R [3]): 2.80 POC
N#Cc1ccc(COc2cccc(C3CCN(Cc4nc5ccc(C(=O)O)cc5n4C[C@@H]4CCO4)CC3)n2)c(F)c1 [Compound 418, reference compound]	–	774	232	drop in plasma concentration ([1]; over about 24 hours post oral dosing, Dose 2, FIG. 8F): about 10 fold
